Source: patent EP3498270A1, “SLOW RELEASE FORMULATIONS OF CELL CYCLE REGULATORS AND ANTI-CANCER AGENTS FOR LOCAL TREATMENT OF SOLID CANCER” (Urogen Pharma Ltd., priority 2017, dated 2019)
Read-outs that look alike come from different tables or passages of the source.

Columns and labels:
RT-4 cells [1] = test: Cell cytotoxicity / apoptosis (Annexin V FITC and PI staining, flow cytometry); format: cell-based, human; conditions: 1mM HU 20 hours, wash; for late apoptosis: after 2 hours Gem 5µM 8 hours, 72 hours from HU washes; for percentages of apoptotic cells: after 2 hours 10µM MMC 8 hours, 48 hours after HU withdrawal
Experimental: After 24 hours to 5 days from HU washes, cells were stained with Annexin V FITC and PI for identifying apoptotic cells according to standard protocols.

UMUC-3 cells [2] = test: XTT cell viability assay; format: cell-based, human; conditions: for viability at 1000 µM / EC50: Homo sapiens
Experimental: Cells were treated with 0-16mM HU/ Control (DMSO or RPMI medium only) for up to 20 hours. […] XTT assay for cytotoxicity was then performed and plates were analyzed in an ELISA reader at wave length of 490nm.
The methods used were as described in the other examples. Briefly, UMUC-3 cells were cultured in 96 well microculture plates. Cells were pretreated with 1mM HU (or DMSO- vehicle control) for 2 hours. […] The percentage of viable cells presented in the figures and table was calculated from untreated cells with viability of 100%.

UMUC-3 cells [3] = test: Cell cycle distribution (PI staining, flow cytometry); format: cell-based, human
Experimental: (§1) A Cyan Flow cytometer was used for determining DNA content and cell cycle distribution of UMUC-3 and RT-4 cells. Cells were seeded in 6 well plates (10^6 cells/well) and incubated overnight. Cells were then cultured with cell cycle modulator (0.1-15mM HU or 0.25µM PD0332991) or with DMSO (vehicle control) for up to 20 hours (HU) or 24 hours (PD0332991). Then, the HU, PD0332991 (or DMSO) was washed and replaced by fresh media and cells were fixed at different time points following washes. The fixation was done by a fixation buffer that purchased from ENCO (Cayman). Minimum 2 hours after the fixation, cells were washed and labeled with propidium iodide (PI) for 15 min in the dark. Cells were analyzed by flow cytometry (PI staining was detected in FL3, […] laser).
(§2) Unless otherwise indicated, methods were as described in Example 1. In order to investigate the influence of HU on cell cycle distribution in bladder cancer cell lines, UMUC-3 and RT-4 cells were treated with 1mM HU (or DMSO for vehicle control) for 20 hours. Cell cycle distribution was observed immediately after HU exposure and 2, 4, 6, 8, and 10 hours following HU withdrawal.

RT-4 cells [4] = test: as above; format: cell-based, human; conditions: 1mM HU for 20 hours, 4 hours from HU withdrawal
Experimental: as §1, §2

UMUC-3 cells [5] = test: Cell cytotoxicity / apoptosis (Annexin V FITC and PI staining, flow cytometry); conditions: 1mM HU 20 hours, wash, after 2 hours 10µM MMC 8 hours; 48 hours after HU withdrawal
RT-4 cells [6] = test: XTT cell viability assay; format: cell-based; conditions: Homo sapiens, RT-4, read-out: MMC EC50 concentration value

| Compound | late apoptosis (RT-4 cells [1]) | viability (UMUC-3 cells [2]; 1mM HU 20 hours, wash, after 2 hours Gem (EC50) 8 hours) | percentages of apoptotic cells (RT-4 cells [1]) | percentage of cells at the S phase (UMUC-3 cells [3]; 1mM HU for 20 hours, 4 hours from HU withdrawal) | increase in S phase accumulation (UMUC-3 cells [3]; 1mM HU for 20 hours, versus DMSO control, 4 hours from HU withdrawal) | S phase accumulation (UMUC-3 cells [3]; HU 0.5 to 4mM for 20 hours, 6 hours after the HU wash) | influence on cell cycle distribution (UMUC-3 cells [3]; HU concentrations lower than 0.1mM) | percentage of cells at the S phase (RT-4 cells [4]) | increase in S phase accumulation (RT-4 cells [4]; versus DMSO control) | viability at 1000 µM (UMUC-3 cells [2]; UMUC3, 1mM HU 20 hours, wash, after 2 hours Gem (EC50) 8 hours) | viability at 1000 µM (UMUC-3 cells [2]; UMUC3, short exposure: 1mM HU 2 hours, 2 hours wash, 20µM MMC 2 hours, analysed after 48 hours) | percentages of apoptotic cells (UMUC-3 cells [5]) | EC50 (RT-4 cells [6]) | EC50 (UMUC-3 cells [2]; UMUC3, 2 h, read-out: MMC EC50 value) | EC50 (UMUC-3 cells [2]; UMUC3, read-out: MMC EC50 concentration value) |
| --- | --- | --- | --- | --- | --- | --- | --- | --- | --- | --- | --- | --- | --- | --- | --- |
| Nc1ccn([C@@H]2O[C@H](CO)[C@@H](O)C2(F)F)c(=O)n1 [Gem, Gemcitabine] | 22.2% | 50.9% | – | – | – | – | – | – | – | – | – | – | – | – | – |
| NC(=O)NO [HU, Hydroxyurea] | 5.9% | – | 4.8% | 57.0% | approximately 3 fold | greater than 50% | no significant influence | 48.6% | approximately 6 fold | 71.3% | 86.1% | 8.1% | – | – | – |
| CO[C@@]12[C@H](COC(N)=O)C3=C(C(=O)C(C)=C(N)C3=O)N1C[C@@H]1N[C@@H]12 [MMC, Mitomycin C] | – | – | 13.4% | – | – | – | – | – | – | – | – | 21.4% | 5 to 20 µM | 20 µM | 10 µM |
